According to US11419840B2, “Compositions and methods comprising C16:1N7-palmitoleate” (Tersus Life Sciences, LLC, priority 2011, dated 2022):

Columns and labels:
Apo E knockout mice [1] = assay: Quantification of aortic sinus lesions (oil red O staining of aortic root); type: in vivo, mouse; conditions: rosuvastatin 20 mg/kg/day; its own control 0.36 ± 0.10
Excerpt: Thirty-four male Apo E knockout mice were obtained from Jackson Laboratories (Bar Harbor, Me.). The mice were fed with normal mouse chow until 2 months of age and randomly allocated into two groups (n=17 each). One group of mice was then fed a control Western high-fat diet (F5722, fat 20%, cholesterol 2.1 gm/kg). […] CCO-Oil has approximately 20 wt % C16:1n7-palmitoleate. The consistency of the food was a paste; it appeared to be enticing to the mice and well tolerated. Water was freely available throughout the course of the study. Blood samples were obtained 8 and 12 weeks after initiation of the diet. At 12 weeks, all mice were sacrificed by intraperitoneal injection of ketamine/xylazine. […] Data were presented as mean±SD. Statistical analysis was performed with t-test. P<0.05 indicates statistical significance.
The surface area of aorta occupied by atherosclerotic lesions was quantified by en face oil red 0 staining, using an approach modified from Palinski et al. After mice were killed, a catheter was inserted into the left ventricle and the arterial tree was perfused with PBS (25 ml), followed by 4% buffered formaldehyde (20 ml, PH 7.4) at a pressure of 100 mm Hg. Under a microscope (Leica M500) the entire aorta attached to the heart was dissected and the adventitial fat was dissected. […]

Apo E knockout mice [2] = assay: Quantification of aorta lesions (en face Sudan IV staining); type: in vivo, mouse; conditions: rosuvastatin 20 mg/kg/day; its own control 21.9 ± 2.9, P<0.05
Excerpt: Thirty-four male Apo E knockout mice were obtained from Jackson Laboratories (Bar Harbor, Me.). The mice were fed with normal mouse chow until 2 months of age and randomly allocated into two groups (n=17 each). One group of mice was then fed a control Western high-fat diet (F5722, fat 20%, cholesterol 2.1 gm/kg). The other group was fed a composition comprising C16:1n7-palmitoleate (CCO-Oil 20 wt %, cholesterol 2.1 gm/kg). […] Water was freely available throughout the course of the study. Blood samples were obtained 8 and 12 weeks after initiation of the diet. At 12 weeks, all mice were sacrificed by intraperitoneal injection of ketamine/xylazine. […] Data were presented as mean±SD. Statistical analysis was performed with t-test. P<0.05 indicates statistical significance.
The surface area of aorta occupied by atherosclerotic lesions was quantified by en face oil red 0 staining, using an approach modified from Palinski et al. After mice were killed, a catheter was inserted into the left ventricle and the arterial tree was perfused with PBS (25 ml), followed by 4% buffered formaldehyde (20 ml, PH 7.4) at a pressure of 100 mm Hg. Under a microscope (Leica M500) the entire aorta attached to the heart was dissected and the adventitial fat was dissected. The ascending aorta was transected, and the heart was placed in histo-choice for assessment of aortic root atherosclerosis. […]

CC(C)c1nc(N(C)S(C)(=O)=O)nc(-c2ccc(F)cc2)c1/C=C/[C@@H](O)C[C@@H](O)CC(=O)O [Rosuvastatin]
Aortic sinus lesion size (Apo E knockout mice [1]): 0.35 ± 0.10 mm^2 | Aortic lesion (% of surface area) (Apo E knockout mice [2]): 11.9 ± 1.9 %
